Data: patent US10308682B2, “Inhibition of tumor growth with aggregates of small molecules” (BRANDEIS UNIVERSITY, priority 2013, dated 2019)

How the values were obtained:
HeLa cells = assay: Cell viability assay (MTT), HeLa cells; assay type: cell-based
Description: Cells in exponential growth phase were seeded in a 96 well plate at a concentration of 50,000 cell/well. The cells were allowed to attach to the wells for 24 h at 37° C., 5% CO2, then the culture medium was removed and 100 μL new culture medium containing 1 at gradient concentrations was placed into each well. After culturing at 37° C., 5% CO2 for desired time, each well was added by 10 μL of 5 mg/mL MTT 43-(4,5-Dimethylthiazol-2-yl)-2,5-diphenyltetrazolium bromide), and the plated cells were incubate at dark for 4 h. 100 μL 10% SDS with 0.01 M HCl was added to each well to stop the reduction reaction and to dissolve the purple. After incubation of the cells at 37° C. for overnight, the viability is measured. Data represent the mean±standard deviation of three independent experiments.
The estimation of the threshold concentration of aggregation (320-340 μM) for 1 allows us to examine the cytotoxicity of 1 in monomer and molecular aggregate forms. We first tested the cytotoxicity of 1 towards HeLa cells, the most widely studied cancer cell line, below and above the threshold concentration.

[1] = Self-assembly: gelation and aggregation ability; assay type: physicochemical
Description: FIG. 22 depicts the characteristics and cytotoxicity of a structural analog of 1.
Another often overlooked feature of amyloid oligomers is that their cytotoxicity is independent of chirality of the amino acids.

[2] = cited from earlier work

Row | Compound | cytotoxicity (MTT, HeLa cells) compared with 1 (HeLa cells) | gelation ability compared with 1 [1] | IC50 (cytotoxicity of aberrant protein aggregates) [2] [mg/mL]
1 | O=C(Cc1ccc2ccccc2c1)N[C@@H](Cc1ccc(O)cc1)C(=O)N[C@@H](Cc1ccc(O)cc1)C(=O)O [Nap-YY] | lower cytotoxicity than 1 | poorer gelation ability | 
2 | transthyretin |  |  | 0.2
